In patent US12358885B2, “Substituted n-propylamine fused heterocyclic mescaline derivatives” (Enveric Biosciences Canada Inc., priority 2022, dated 2025):
Where two headings read alike, the source gives them in different places.

What was measured:
[1] = molecular target: T1, 5-HT1A receptor (Homo sapiens, UniProt P08908); assay: 5-HT1A receptor radioligand competition assay (SPA, 8-hydroxy-DPAT [3H]); assay type: binding; conditions: 0.5 nM hot 8-hydroxy-DPAT, membranes containing 5-HT1A
T1 construct: purchased Perkin Elmer 6110501400UA
T1 sequence (P08908 1-422): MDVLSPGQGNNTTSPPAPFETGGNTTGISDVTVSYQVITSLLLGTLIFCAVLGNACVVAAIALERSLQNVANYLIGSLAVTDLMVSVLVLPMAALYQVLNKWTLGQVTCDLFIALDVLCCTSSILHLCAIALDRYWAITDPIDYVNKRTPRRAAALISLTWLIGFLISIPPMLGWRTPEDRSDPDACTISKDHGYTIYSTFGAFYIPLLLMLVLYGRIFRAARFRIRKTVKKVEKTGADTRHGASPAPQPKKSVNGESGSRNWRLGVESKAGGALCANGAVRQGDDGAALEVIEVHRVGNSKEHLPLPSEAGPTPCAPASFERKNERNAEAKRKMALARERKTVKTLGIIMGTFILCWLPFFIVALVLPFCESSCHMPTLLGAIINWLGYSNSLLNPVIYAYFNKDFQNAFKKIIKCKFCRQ

[2] = molecular target: T1, 5-HT1A receptor; assay: Eurofins Cerep competition binding assay at 5-HT1A receptor; conditions: 10 μM test ligand, [3H]8-OH-DPAT, recombinant receptor in HEK-293 cells; for inhibition at 10 µM: read-out: HT1A, percent of control-specific binding
[3] = molecular target: T2, norepinephrine transporter (NET) (Homo sapiens, UniProt P23975); assay: Eurofins Cerep competition binding assay at norepinephrine transporter; conditions: for NET, percent of control-specific binding: 10 μM test ligand, [3H]nisoxetine, recombinant transporter in CHO cells; for inhibition at 10 µM: read-out: NET, percent of control-specific binding
T2 construct: host or cells: CHO cells (membrane preparation)
T2 sequence (P23975 whole entry): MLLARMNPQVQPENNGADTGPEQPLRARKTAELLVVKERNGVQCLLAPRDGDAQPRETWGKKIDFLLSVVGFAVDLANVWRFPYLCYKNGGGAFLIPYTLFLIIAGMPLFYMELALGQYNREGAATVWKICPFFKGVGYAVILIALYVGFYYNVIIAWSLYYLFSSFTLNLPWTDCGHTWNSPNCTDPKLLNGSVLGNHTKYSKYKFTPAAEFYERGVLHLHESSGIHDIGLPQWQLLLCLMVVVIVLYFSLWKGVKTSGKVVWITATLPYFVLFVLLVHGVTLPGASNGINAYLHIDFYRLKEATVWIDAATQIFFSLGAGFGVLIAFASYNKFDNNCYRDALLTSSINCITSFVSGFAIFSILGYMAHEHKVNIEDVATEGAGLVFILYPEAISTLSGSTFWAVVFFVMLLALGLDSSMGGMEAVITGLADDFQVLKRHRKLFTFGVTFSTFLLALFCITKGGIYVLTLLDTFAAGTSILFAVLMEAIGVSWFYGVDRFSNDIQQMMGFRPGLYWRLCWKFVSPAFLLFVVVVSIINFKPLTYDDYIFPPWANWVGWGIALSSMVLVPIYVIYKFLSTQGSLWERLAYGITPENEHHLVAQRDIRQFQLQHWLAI

[4] = molecular target: T3, 5-HT7 receptor (Homo sapiens, UniProt P34969); assay: Eurofins Cerep competition binding assay at 5-HT7 receptor; conditions: 10 μM test ligand, [3H]LSD, recombinant receptor in HEK-293 cells; for inhibition at 10 µM: read-out: HT7, percent of control-specific binding
T3 construct: host or cells: HEK-293 cells (membrane preparation)
T3 sequence (P34969 whole entry): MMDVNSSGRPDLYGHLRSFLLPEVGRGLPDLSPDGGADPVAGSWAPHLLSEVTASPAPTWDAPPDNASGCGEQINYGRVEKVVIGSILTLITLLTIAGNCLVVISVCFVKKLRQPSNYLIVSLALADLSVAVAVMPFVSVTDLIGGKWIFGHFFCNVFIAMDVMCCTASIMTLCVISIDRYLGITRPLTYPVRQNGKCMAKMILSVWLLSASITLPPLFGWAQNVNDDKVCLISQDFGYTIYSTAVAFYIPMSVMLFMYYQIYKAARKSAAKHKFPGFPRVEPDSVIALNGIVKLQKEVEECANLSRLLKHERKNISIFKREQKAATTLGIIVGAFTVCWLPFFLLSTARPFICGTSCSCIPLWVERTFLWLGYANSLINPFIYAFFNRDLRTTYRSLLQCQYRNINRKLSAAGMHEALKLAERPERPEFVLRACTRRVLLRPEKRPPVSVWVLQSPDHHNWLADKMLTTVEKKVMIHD

[5] = molecular target: T1, 5-HT1A receptor; assay: Functional 5-HT1A receptor cAMP assay in CHO-K1/5-HT1A/Gα15 cells; assay type: cell-based
[6] = molecular target: T4, 5-HT2A receptor (Homo sapiens, UniProt P28223); assay: biochemical; assay type: binding; conditions: for inhibition at 10 µM: read-out: HT2A, percent of control-specific binding
T4 construct: host or cells: HEK-293 cells (membrane preparation)
T4 sequence (P28223 whole entry): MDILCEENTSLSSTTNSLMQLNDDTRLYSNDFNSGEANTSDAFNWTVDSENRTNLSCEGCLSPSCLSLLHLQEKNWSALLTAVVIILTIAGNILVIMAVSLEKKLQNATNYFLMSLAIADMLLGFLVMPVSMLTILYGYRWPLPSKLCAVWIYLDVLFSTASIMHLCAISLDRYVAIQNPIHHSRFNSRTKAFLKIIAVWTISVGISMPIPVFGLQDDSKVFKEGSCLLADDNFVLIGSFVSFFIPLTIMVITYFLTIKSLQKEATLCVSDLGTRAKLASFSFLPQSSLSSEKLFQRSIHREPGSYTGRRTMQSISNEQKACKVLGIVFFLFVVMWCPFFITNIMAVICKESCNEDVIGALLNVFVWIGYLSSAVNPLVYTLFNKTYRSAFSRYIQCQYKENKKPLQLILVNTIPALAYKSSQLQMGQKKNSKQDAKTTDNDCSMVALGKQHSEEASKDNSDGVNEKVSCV

[7] = molecular target: T5, 5-HT2B receptor (Homo sapiens, UniProt P41595); assay: Eurofins Cerep competition binding assay at 5-HT2B receptor; conditions: 10 μM test ligand, [3H]mesulergine, recombinant receptor in CHO cells; for inhibition at 10 µM: read-out: HT2B, percent of control-specific binding
T5 construct: host or cells: CHO cells (membrane preparation)
T5 sequence (P41595 whole entry): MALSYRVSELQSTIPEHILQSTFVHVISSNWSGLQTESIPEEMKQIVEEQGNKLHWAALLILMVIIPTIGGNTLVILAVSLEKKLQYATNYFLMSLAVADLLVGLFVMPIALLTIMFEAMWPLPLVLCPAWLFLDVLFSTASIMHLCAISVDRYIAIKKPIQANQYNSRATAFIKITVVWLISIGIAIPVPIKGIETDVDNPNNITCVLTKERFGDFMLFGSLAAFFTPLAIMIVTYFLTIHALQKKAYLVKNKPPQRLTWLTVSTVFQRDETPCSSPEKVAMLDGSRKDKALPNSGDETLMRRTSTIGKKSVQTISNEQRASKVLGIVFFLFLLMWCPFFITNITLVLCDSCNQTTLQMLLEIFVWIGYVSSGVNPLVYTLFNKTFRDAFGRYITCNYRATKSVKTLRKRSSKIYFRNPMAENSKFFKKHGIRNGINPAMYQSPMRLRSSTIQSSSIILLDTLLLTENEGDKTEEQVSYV

[8] = molecular target: T6, D3 receptor (Homo sapiens, UniProt P35462); assay: Eurofins Cerep competition binding assay at D3 receptor; conditions: 10 μM test ligand, [3H]methylspiperone, recombinant receptor in CHO cells; for inhibition at 10 µM: read-out: D3, percent of control-specific binding
T6 construct: host or cells: CHO cells (membrane preparation)
T6 sequence (P35462 whole entry): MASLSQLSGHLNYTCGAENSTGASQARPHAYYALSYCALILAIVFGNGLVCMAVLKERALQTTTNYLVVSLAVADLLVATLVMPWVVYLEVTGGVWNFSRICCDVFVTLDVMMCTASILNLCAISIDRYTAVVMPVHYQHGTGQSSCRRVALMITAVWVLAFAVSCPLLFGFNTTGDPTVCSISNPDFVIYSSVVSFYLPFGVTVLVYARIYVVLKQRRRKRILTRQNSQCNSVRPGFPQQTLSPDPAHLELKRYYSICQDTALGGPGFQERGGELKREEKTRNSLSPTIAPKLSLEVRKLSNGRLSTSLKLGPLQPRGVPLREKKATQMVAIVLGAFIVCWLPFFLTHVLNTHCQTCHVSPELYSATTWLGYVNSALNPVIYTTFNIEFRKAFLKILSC

[9] = molecular target: T7, alpha2A receptor (Homo sapiens, UniProt P08913); assay: Eurofins Cerep competition binding assay at alpha2A receptor; conditions: 10 μM test ligand; [3H]RX 821002; recombinant receptor in CHO cells
T7 construct: host or cells: CHO cells (membrane preparation)
T7 sequence (P08913 1-465): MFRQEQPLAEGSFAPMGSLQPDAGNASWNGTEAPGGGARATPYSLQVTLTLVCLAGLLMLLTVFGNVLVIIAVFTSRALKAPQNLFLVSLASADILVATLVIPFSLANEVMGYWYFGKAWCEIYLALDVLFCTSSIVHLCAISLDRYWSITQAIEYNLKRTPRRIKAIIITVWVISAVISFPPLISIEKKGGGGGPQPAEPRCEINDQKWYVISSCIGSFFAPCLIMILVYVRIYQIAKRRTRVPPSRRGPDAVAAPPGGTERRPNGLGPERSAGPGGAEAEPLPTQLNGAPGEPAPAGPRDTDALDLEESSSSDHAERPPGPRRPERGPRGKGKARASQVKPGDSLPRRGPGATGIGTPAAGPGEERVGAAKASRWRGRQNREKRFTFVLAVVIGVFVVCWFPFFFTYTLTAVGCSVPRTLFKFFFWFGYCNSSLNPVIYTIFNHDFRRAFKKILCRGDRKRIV

[10] = molecular target: T4, 5-HT2A receptor; assay: biochemical; assay type: binding; conditions: 1 nM [3H]ketanserin; membranes containing 5-HT2A; SPA
[11] = molecular target: T8, dopamine transporter (DAT) (Homo sapiens, UniProt Q01959); assay: Eurofins Cerep competition binding assay at dopamine transporter; conditions: for DAT, percent of control-specific binding: 10 μM test ligand, [3H]BTCP, recombinant transporter in CHO cells; for inhibition at 10 µM: read-out: DAT, percent of control-specific binding
T8 construct: host or cells: CHO cells (membrane preparation)
T8 sequence (Q01959 whole entry): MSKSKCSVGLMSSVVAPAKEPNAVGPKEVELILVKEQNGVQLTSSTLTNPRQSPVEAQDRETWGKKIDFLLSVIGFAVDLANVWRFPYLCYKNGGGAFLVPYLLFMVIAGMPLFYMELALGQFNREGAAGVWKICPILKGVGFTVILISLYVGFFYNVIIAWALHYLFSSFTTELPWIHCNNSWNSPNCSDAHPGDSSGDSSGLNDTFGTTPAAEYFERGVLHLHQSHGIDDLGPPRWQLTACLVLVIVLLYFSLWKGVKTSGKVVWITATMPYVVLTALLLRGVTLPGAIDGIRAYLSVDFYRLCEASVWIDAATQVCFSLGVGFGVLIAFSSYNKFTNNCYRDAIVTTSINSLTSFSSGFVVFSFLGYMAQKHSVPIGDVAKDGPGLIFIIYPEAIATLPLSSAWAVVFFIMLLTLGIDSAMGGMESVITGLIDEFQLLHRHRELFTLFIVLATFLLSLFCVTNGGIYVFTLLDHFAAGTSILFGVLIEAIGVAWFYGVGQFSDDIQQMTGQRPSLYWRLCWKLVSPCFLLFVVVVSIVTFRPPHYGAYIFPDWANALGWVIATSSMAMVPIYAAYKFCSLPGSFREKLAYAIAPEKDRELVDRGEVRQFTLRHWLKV

[12] = molecular target: T9, MT1 receptor (Homo sapiens, UniProt P48039); assay: Eurofins Cerep competition binding assay at MT1 receptor; conditions: for MT1, percent of control-specific binding: 10 μM test ligand, [125I]2-iodomelatonin, recombinant receptor in CHO cells; for inhibition at 10 µM: read-out: MT1, percent of control-specific binding
T9 construct: host or cells: CHO cells (membrane preparation)
T9 sequence (P48039 whole entry): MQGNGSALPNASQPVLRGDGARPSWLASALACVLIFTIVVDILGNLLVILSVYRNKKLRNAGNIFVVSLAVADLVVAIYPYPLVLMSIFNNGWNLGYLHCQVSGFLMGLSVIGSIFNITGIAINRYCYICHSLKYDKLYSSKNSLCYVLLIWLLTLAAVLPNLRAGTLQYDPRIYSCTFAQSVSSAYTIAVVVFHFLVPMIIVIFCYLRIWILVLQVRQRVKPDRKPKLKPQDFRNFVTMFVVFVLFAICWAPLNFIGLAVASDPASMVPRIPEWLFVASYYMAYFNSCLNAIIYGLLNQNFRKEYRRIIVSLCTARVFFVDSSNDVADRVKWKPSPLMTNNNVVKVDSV

[13] = molecular target: T10, serotonin transporter (SERT) (Homo sapiens, UniProt P31645); assay: biochemical; assay type: binding; conditions: for SERT, percent of control-specific binding: 10 µM; for inhibition at 10 µM: read-out: SERT, percent of control-specific binding
T10 construct: host or cells: CHO cells (membrane preparation)
T10 sequence (P31645 whole entry): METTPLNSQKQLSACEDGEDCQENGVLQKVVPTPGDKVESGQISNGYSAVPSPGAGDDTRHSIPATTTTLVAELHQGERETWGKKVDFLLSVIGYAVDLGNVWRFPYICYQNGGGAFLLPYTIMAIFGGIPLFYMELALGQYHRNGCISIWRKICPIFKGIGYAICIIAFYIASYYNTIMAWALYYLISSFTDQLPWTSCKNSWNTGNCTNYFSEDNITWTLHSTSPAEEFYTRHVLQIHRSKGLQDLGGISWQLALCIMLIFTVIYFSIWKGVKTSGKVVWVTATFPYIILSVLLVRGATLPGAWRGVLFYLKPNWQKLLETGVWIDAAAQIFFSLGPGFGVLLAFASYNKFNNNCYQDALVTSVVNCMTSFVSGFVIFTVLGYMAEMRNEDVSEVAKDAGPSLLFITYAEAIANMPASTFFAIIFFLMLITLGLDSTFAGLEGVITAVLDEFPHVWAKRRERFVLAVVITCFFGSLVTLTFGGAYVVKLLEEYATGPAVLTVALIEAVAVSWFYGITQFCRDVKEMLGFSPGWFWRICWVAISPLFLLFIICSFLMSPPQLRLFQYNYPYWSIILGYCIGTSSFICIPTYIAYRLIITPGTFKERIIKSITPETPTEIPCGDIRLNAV

[14] = molecular target: T11, 5-HT2C receptor (Homo sapiens, UniProt P28335); assay: Eurofins Cerep competition binding assay at 5-HT2C receptor; conditions: 10 μM test ligand; [125I](±)DOI; recombinant receptor in HEK-293 cells; read-out: HT2C, percent of control-specific binding
T11 construct: host or cells: HEK-293 cells (membrane preparation)
T11 sequence (P28335 33-458): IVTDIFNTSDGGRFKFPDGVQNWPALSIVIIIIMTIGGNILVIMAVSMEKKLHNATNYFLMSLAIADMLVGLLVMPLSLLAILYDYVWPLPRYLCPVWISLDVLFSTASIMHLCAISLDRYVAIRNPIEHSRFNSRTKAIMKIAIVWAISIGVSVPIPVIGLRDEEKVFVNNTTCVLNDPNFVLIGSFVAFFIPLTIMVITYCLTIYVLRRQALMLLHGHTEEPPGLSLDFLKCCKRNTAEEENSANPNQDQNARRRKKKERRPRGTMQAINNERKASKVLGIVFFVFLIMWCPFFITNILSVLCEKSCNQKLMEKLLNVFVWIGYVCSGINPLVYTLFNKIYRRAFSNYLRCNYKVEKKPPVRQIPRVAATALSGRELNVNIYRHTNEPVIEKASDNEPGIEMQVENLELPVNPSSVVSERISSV

[15] = 10 μM test molecule, [125I](±)DOI, recombinant receptor in HEK-293 cells

`CC(Cc1ccc2c(c1)OCO2)CN1CCCC1` (racemic) [A(II)] gave a Ki [1] of 8 µM.
With `COc1cc(CCN)c(OC)cc1Br` [2C-B, reference compound] the “HT1A, percent of control-specific binding” value [2] was 96%, the “NET, percent of control-specific binding” value [3] was 13% and the “HT7, percent of control-specific binding” value [4] was 88%. For the same molecule, the EC50 ([5]; reduction of cAMP in cells stimulated with 4 μM forskolin, CHO-K1/5-HT1A/Gα15, read-out: 5-HT1A, EC50) was 5.95 µM, the “HT2A, percent of control-specific binding” value [6, 15] was 98% and the “HT2B, percent of control-specific binding” value [7] was 99%. The “D3, percent of control-specific binding” value [8] was 43%, the “α-2A, percent of control-specific binding” value (shortened to “α-2A, percent”) [9] was 88% and the Ki [10] was 0.414 µM. The “DAT, percent of control-specific binding” value [11] was 5%, the “MT1, percent of control-specific binding” value [12] was 86% and the “SERT, percent of control-specific binding” value [13] was 42%. For the same molecule, the Ki [1] was 0.2 µM.
With `COc1ccc2cccc(CCNC(C)=O)c2c1` [Agomelatine] the inhibition at 10 µM [6, 15] was 61%, the inhibition at 10 µM [8] was 6% and the “α-2A, percent” value [9] was 2%.
`CC(NC(C)(C)C)C(=O)c1cccc(Cl)c1` (stereo not shown) [Bupropion] was tested, and the inhibition at 10 µM [8] was 3% and the “α-2A, percent” value [9] was 2%.
`CCN(CC)CCCc1ccc2c(c1)OCO2` [C(I)] gave a Ki [1] of 2.9 µM.
With `c1cc2c(cc1CCCN1CCCC1)OCO2` [C(III)] the inhibition at 10 µM [2] was 72%, the inhibition at 10 µM [3] was 3% and the inhibition at 10 µM [4] was 15%. For the same molecule, the inhibition at 10 µM [6, 15] was 37%, the inhibition at 10 µM [14] was 33% and the inhibition at 10 µM [7] was 47%. For the same molecule, the inhibition at 10 µM [8] was 22%, the “α-2A, percent” value [9] was 36% and the inhibition at 10 µM [11] was 27%. The inhibition at 10 µM [12] was 3%, the inhibition at 10 µM [13] was 19% and the Ki [1] was 2.33 µM.
Work on `Brc1cc2c(cc1CCCN1CCCC1)OCO2` [C(IV)] yielded an inhibition at 10 µM [2] of 92%, an inhibition at 10 µM [3] of 0% and an inhibition at 10 µM [4] of 40%. It also gave an inhibition at 10 µM [6, 15] of 62%, an inhibition at 10 µM [14] of 65% and an inhibition at 10 µM [7] of 73%. The inhibition at 10 µM [8] was 61%, the “α-2A, percent” value [9] was 55% and the inhibition at 10 µM [11] was 10%. It also gave an inhibition at 10 µM [12] of 8%, an inhibition at 10 µM [13] of 31% and a Ki [1] of 0.596 µM.
`COc1cc2c(cc1CCCN1CCCC1)OCO2` [C(V)] gave an EC50 [5] of 116 µM and a Ki [1] of 5 µM.
For `OCCNCCCc1cc2c(cc1Br)OCO2` [C(XIII)], the EC50 [5] was 22.9 µM.
With `COc1cc(CC(C)N)c(OC)cc1Br` (stereo not shown) [DOB, reference compound] the “HT1A, percent of control-specific binding” value [2] was 75%, the “NET, percent of control-specific binding” value [3] was 6% and the “HT7, percent of control-specific binding” value [4] was 65%. For the same molecule, the “HT2A, percent of control-specific binding” value [6, 15] was 100%, the “HT2B, percent of control-specific binding” value [7] was 97% and the “D3, percent of control-specific binding” value [8] was 25%. The “α-2A, percent” value [9] was 66%, the “DAT, percent of control-specific binding” value [11] was 3% and the “MT1, percent of control-specific binding” value [12] was −3%. The “SERT, percent of control-specific binding” value [13] was 53%.
For `CNCC[C@H](Oc1cccc2ccccc12)c1cccs1` [Duloxetine], the inhibition at 10 µM [6] was 95%, the inhibition at 10 µM [8] was 66% and the “α-2A, percent” value [9] was 54%.
Work on `O=C(CCc1ccc2c(c1)OCO2)N1CCCC1` [F(III)] yielded an inhibition at 10 µM [2] of 0%, an inhibition at 10 µM [3] of 0% and an inhibition at 10 µM [4] of 2%. The inhibition at 10 µM [6, 15] was 0%, the inhibition at 10 µM [14] was 5% and the inhibition at 10 µM [7] was 13%. The inhibition at 10 µM [8] was 0%, the “α-2A, percent” value [9] was 5% and the Ki [10] was 152 µM. It also gave an inhibition at 10 µM [11] of 0%, an inhibition at 10 µM [12] of 12% and an inhibition at 10 µM [13] of 0%. For the same molecule, the Ki [1] was > 1000 µM.
